{
  "source": "patent US20220089600A1",
  "about": "“TGFß INHIBITOR AND PRODRUGS” (FUNDACIÓ INSTITUT DE RECERCA BIOMÈDICA (IRB BARCELONA), priority 2018, published 2022)",
  "key": {"MTO129 liver metastases": {"system": "MTO129 liver metastases", "experiment": "Liver metastasis formation assay versus compounds 338 and 337 (FIG. 17)", "type": "in vivo, mouse", "details": "FIG. 17, 1× dose, day 2 to 18, count at 21 days", "protocol": "In another experiment (FIG. 17), we compared the in vivo therapeutic activity of compound of formula I to the related compound 338 and compound 337. […] All mice were treated from day 2 to day 18 post inoculation of tumor cells. Number of liver metastases were counted at 21 days after MTO inoculation."}, "human ALK5": {"target": "T1, human ALK5 (Homo sapiens, UniProt P36897)", "T1 construct": "purchased Eurofins (Kinase Profiler service)", "T1 sequence (P36897 34-503)": "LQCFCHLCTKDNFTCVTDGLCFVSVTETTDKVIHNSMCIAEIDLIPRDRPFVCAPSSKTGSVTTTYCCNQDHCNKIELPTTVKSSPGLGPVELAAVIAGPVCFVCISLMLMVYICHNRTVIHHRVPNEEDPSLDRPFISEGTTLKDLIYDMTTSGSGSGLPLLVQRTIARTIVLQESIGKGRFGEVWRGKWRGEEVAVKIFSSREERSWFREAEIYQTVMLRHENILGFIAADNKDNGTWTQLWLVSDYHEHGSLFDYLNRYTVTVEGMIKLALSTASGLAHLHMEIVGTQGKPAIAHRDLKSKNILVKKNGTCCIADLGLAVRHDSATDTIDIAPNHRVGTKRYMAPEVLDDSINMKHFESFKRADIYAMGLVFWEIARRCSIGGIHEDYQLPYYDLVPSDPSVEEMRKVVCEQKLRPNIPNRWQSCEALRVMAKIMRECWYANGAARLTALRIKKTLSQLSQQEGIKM", "experiment": "KinaseProfiler enzymatic activity inhibition", "type": "biochemical", "protocol": "Briefly, human ALK5 was incubated with 8 mM MOPS pH 7.0, 0.2 mM EDTA, 1 mM MnCl2, 2 mg/mL casein, 10 mM MgAcetate and [γ-33P-ATP] (specific activity approx. 500 cpm/pmol, concentration as required). The reaction was initiated by the addition of the MgATP mix. After incubation for 40 minutes at room temperature, the reaction was stopped by the addition of a 3% phosphoric acid solution. 10 μL of the reaction was then spotted onto a P30 filtermat and washed three times for 5 minutes in 75 mM phosphoric acid and once in methanol prior to drying and scintillation counting.\nCompounds were tested using a 9-point curve with half-Log serial dilutions. The top concentration tested was 10 μM. Test compounds were prepared in 100% DMSO."}, "[1]": {"system": "proteins in the SafetyScreen44 panel (versus ALK5)", "experiment": "SafetyScreen44 safety panel", "details": "SafetyScreen44 panel (Eurofins) of off-target proteins; read-out: selectivity ratios for the proteins in the SafetyScreen44 panel", "protocol": "(§1) In addition, a safety assessment was performed by using the SafetyScreen44™ service from Eurofins. The targets therein are all strongly associated with in vivo adverse drug reactions as referenced in the publication Reducing safety-related drug attrition: the use of in vitro pharmacological profiling (Bowes J et al., Nature Review Drug Discovery 2012, 11(12): 909-922). The panel represents a rational first step in preliminary safety assessments as they provide early identification of potential off-target interactions for the optimization of safety margins. This Safety Panel includes both enzymatic and binding assays. The percentage of inhibition for the compound of formula I at 10 μM was lower than 50% for all proteins tested."}, "[2]": {"system": "proteins in the SafetyScreen44 panel", "experiment": "SafetyScreen44 safety panel", "details": "at 10 μM, all proteins tested", "protocol": "as §1"}, "[3]": {"system": "TGFβ signaling (12×CAGA-Firefly_Luc reporter) in HEK293T cells", "experiment": "In vitro CAGA-Luciferase reporter assay", "type": "cell-based", "details": "Homo sapiens, HEK-293T, 5 ng/ml TGFB1, 16h, read-out: IC50, TGFβ signaling inhibition (CAGA-Luciferase)", "protocol": "HEK293T cells were purchased from the ATCC and cultured in DMEM supplemented with L-glutamine and 10% fetal bovine serum (Life Technologies) at 37° C. and 5% CO2. The cells were seeded in 24-well plates and transfected with plasmids encoding 12×CAGA-Firefly_Luc and Tk-Renilla_Luc (75 and 10 ng per well, respectively), using polyethylenimine (Polysciences) as transfection reagent. After 7h, medium was replaced for starvation medium (DMEM+0.05% FBS). […] Luciferase activity was measured 16h later using the Dual Luciferase Assay kit (Promega): media were aspirated, and cells were lysed in 200 μl passive lysis buffer (kit) for 20 minutes. Bioluminescence was measured in a Berthold Lumat LB6507 luminometer (18 μl reagents, 10 seconds measurements). […]\nWhen adding the luciferase substrate (luciferin) to the cell lysates, emission of light implies an active TGF-β pathway due to the production of pSMAD2/3-SMAD4, whereas no or little observed light would imply inhibition of the pathway by the inhibitor. Finally, the results could be normalized by the addition of Stop & Glo® which quenches the firefly luciferase enzyme/substrate and activates the Renilla transfection control, producing light which was again measured by the luminometer and used to normalize the data."}, "[4]": {"experiment": "In vivo toxicity, histopathology", "parameters": "species or system mouse", "details": "for Sternum side effect, mice affected per mice tested / Long bones side effect, mice affected per mice tested: two weeks", "from_the_text": "Number of cured mice, i.e. mice with no metastases at experimental end points, were score. Intestines, skin samples, hearts, thoracic skeletons and limbs of these mice were fixed in 10% formalin, phosphate buffered (Sigma). Soft tissues were embedded in paraffin blocks, sectioned and stained with haematoxylin & eosin. Bones were first decalcified for 2 weeks before embedding, sectioning and staining. An experienced pathologist analyzed tissues for histopathological abnormalities. […] Furthermore, the cartilage ossification zone at the ends of the long bones was analysed for defects in the hypertrophic zone."}, "panel of 97 proteins": {"system": "panel of 97 proteins", "experiment": "scanEDGE (KINOMEscan) selectivity panel", "type": "binding", "protocol": "Using scanEDGE (KINOMEscan, Eurofins) assays, the selectivity of the compound of formula I against a panel of 97 proteins was also measured. The selectivity profile of the compound of formula was good."}},
  "data": [
    {"smiles": "Cc1cccc(-c2nn3c(c2-c2ccnc4ccc(O)cc24)CCC3)n1", "note": "[compound of formula I, 4-(2-(6-methylpyridin-2-yl)-5,6-dihydro-4H-pyrrolo[1,2-b]pyrazol-3-yl)quinolin-6-ol]", "values": [
      {"measurement": "potency to block the formation of metastasis compared to compound 338 and compound 337", "setting": "MTO129 liver metastases", "value": "enhanced potency"},
      {"measurement": "IC50", "setting": "human ALK5; KinaseProfiler, 9-point curve, top 10 μM, read-out: Enzyme activity inhibition IC50 (nM) ALK5 (TGFBR1)", "value": 177, "unit": "nM"},
      {"measurement": "ALK5 enzymatic potency, times more potent than prodrug of formula (III)", "setting": "human ALK5; from Table 2", "value": 4.7, "unit": "times"},
      {"measurement": "ALK5 enzymatic potency, times more potent than prodrug of formula (IV)", "setting": "human ALK5; from Table 2", "value": 12.9, "unit": "times"},
      {"measurement": "ALK5 enzymatic potency, times more potent than reference compound 337", "setting": "human ALK5; from Table 2", "value": 1.8, "unit": "times"},
      {"measurement": "ALK5 enzymatic potency, times more potent than reference compound 338", "setting": "human ALK5; from Table 2", "value": 2.1, "unit": "times"},
      {"measurement": "toxicity screens including genotoxicity", "setting": "Genotoxicity screens", "value": "cleared"},
      {"measurement": "selectivity ratio at 10 μM", "setting": "[1]", "value": "> 500"},
      {"measurement": "percentage of inhibition", "setting": "[2]", "value": "lower than 50%"},
      {"measurement": "IC50", "setting": "[3]", "value": 0.165, "unit": "µM"},
      {"measurement": "Combined side effects per number tested", "setting": "[4]; 0.3x dose", "value": "0/5"},
      {"measurement": "Toxicity (%)", "setting": "[4]; 0.3x dose", "value": 0, "unit": "%"},
      {"measurement": "Sternum side effect, mice affected per mice tested", "setting": "[4]; 0.3x dose", "value": "0/5"},
      {"measurement": "Combined side effects per number tested", "setting": "[4]; 1x dose", "value": "0/5"},
      {"measurement": "Toxicity (%)", "setting": "[4]; 1x dose", "value": 0, "unit": "%"},
      {"measurement": "Sternum side effect, mice affected per mice tested", "setting": "[4]; 1x dose", "value": "0/5"},
      {"measurement": "pathological analysis of the skin and intestine", "setting": "[4]; 1× doses", "value": "No pathological anomalies"},
      {"measurement": "Combined side effects per number tested", "setting": "[4]; 3x dose", "value": "2/10"},
      {"measurement": "Toxicity (%)", "setting": "[4]; 3x dose", "value": 20, "unit": "%"},
      {"measurement": "Long bones side effect, mice affected per mice tested", "setting": "[4]; 3x dose", "value": "1/5"},
      {"measurement": "Sternum side effect, mice affected per mice tested", "setting": "[4]; 3x dose", "value": "1/5"},
      {"measurement": "Combined side effects per number tested", "setting": "[4]; 9x dose", "value": "4/8"},
      {"measurement": "Toxicity (%)", "setting": "[4]; 9x dose", "value": 50, "unit": "%"},
      {"measurement": "Long bones side effect, mice affected per mice tested", "setting": "[4]; 9x dose", "value": "3/4"},
      {"measurement": "Sternum side effect, mice affected per mice tested", "setting": "[4]; 9x dose", "value": "1/4"},
      {"measurement": "toxic dose (toxicity >50%)", "setting": "[4]; 9× dose equivalent", "value": 1272, "unit": "mg/kg/day"},
      {"measurement": "therapeutic index (toxic dose/effective dose)", "setting": "[4]; dose equivalents", "value": 30},
      {"measurement": "selectivity profile", "setting": "panel of 97 proteins", "value": "good"}
    ]}
  ]
}
